Data reported in patent publication US20230416245A1, “ADENOSINE ANALOGS FOR THE TREATMENT OF DISEASE” (BIOINTERVENE, INC., priority 2020, published 2023).

Target: human adenosine A3 receptor (Homo sapiens (Human), UniProt P0DMS8)
Assay: Adenosine receptor binding assay ([125I]-AB-MECA competition)
Conditions: inhibition of 0.15 nM [125I]-AB-MECA binding, membranes of cells expressing human A3 receptor; read-out: hA3 Ki: Ki
Summary of the method: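 Competition against 0.15 nM [125I]-AB-MECA was run for 120 min at room temperature on 20 μg human A3-transfected cell membranes in 50 mM Tris pH 7.4, with or without 10 mM MgCl2. Bound label was counted after filtration. Ki was derived by Cheng-Prusoff from Hill-fitted IC50 values.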

human adenosine A3 receptor, sequence (P0DMS8 whole entry): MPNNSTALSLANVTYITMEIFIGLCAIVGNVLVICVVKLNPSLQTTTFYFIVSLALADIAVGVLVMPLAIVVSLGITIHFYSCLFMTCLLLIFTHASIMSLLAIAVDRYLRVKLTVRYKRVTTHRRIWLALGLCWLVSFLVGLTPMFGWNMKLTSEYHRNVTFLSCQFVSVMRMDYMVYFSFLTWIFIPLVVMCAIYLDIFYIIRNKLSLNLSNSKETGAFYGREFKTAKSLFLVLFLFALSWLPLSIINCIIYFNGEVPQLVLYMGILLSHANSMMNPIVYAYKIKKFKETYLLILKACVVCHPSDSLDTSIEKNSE

| Ki | Compound |
| --- | --- |
| 1.7 nM | O[C@@H]1[C@H](O)[C@@H]2C[C@@H]2[C@H]1n1cnc2c(NCC(F)F)nc(Cl)nc21 [Compound 35, (1R,2R,3S,4R,5S)-4-(2-chloro-6-((2,2-difluoroethyl)amino)-9H-purin-9-yl)bicyclo[3.1.0]hexane-2,3-diol] |
| 2 nM | O[C@@H]1[C@H](O)[C@@H]2C[C@@H]2[C@H]1n1cnc2c(NCC(F)F)cc(Cl)nc21 [Compound 40, (1R,2R,3S,4R,5S)-4-(5-chloro-7-((2,2-difluoroethyl)amino)-3H-imidazo[4,5-b]pyridin-3-yl)bicyclo[3.1.0]hexane-2,3-diol] |
| 21.3 nM | CCNc1cc(C#CC2CC2)nc2c1ncn2[C@H]1[C@H](O)[C@H](O)[C@@H]2C[C@@H]21 [Compound 46, (1R,2R,3S,4R,5S)-4-(5-(cyclopropylethynyl)-7-(ethylamino)-3H-imidazo[4,5-b]pyridin-3-yl)bicyclo[3.1.0]hexane-2,3-diol] |
| > 9400 nM | Cc1c(Cl)nc2c(ncn2[C@H]2[C@H](O)[C@H](O)[C@@H]3C[C@@H]32)c1NCC(F)F [Compound 60, (1R,2R,3S,4R,5S)-4-(5-chloro-7-((2,2-difluoroethyl)amino)-6-methyl-3H-imidazo[4,5-b]pyridin-3-yl)bicyclo[3.1.0]hexane-2,3-diol] |
